Assay results: patent US20060264463A1, “Chemical compounds” (priority 2003, published 2006)
One block for each molecule: values may come before it.

Molecular target: T1, human H1 receptor (Homo sapiens, UniProt P35367)
T1 construct: purchased Euroscreen SA, Brussels, Belgium ES-390-M; host or cells: CHO-K1
Experiment: Histamine H1 receptor binding, competition displacement of [3H]-pyrilamine
Conditions: displacement of 1 nM [3H]-pyrilamine; 2 μg membranes from recombinant CHO-K1 cells expressing the human H1 receptor; 1 hour at room temperature; read-out: H1 pKi (converted)

T1 sequence (P35367 whole entry): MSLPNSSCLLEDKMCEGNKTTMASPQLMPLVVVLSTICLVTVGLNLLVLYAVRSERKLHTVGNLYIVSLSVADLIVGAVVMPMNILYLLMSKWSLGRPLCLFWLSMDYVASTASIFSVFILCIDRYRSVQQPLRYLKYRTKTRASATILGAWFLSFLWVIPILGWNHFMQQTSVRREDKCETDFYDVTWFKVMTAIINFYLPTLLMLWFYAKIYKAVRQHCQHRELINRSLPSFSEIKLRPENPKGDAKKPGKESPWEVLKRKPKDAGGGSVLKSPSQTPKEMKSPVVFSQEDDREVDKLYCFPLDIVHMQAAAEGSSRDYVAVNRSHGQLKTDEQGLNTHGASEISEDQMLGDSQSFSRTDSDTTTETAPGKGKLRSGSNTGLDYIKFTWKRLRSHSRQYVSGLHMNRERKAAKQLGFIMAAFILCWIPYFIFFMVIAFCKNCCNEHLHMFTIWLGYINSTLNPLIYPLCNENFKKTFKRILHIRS

SMILES: Cc1cc(OC2CCN(CC3CCN(c4cc(Cl)ccc4C(=O)O)CC3)CC2)ccc1Cl [Example 74, 4-chloro-2-(4-{[4-(4-chloro-3-methylphenoxy)piperidin-1-yl]methyl}piperidin-1-yl)benzoic acid]
Ki: 2.51 nM

SMILES: N#Cc1ccc(OC2CCN(CC3CCN(c4ccccc4C(=O)O)CC3)CC2)cc1Cl [Example 34, 2-(4-{[4-(3-chloro-4-cyanophenoxy)piperidin-1-yl]methyl}piperidin-1-yl)benzoic acid]
Ki: 631 nM

SMILES: Cc1cc(OC2CCN(CC3CCN(c4c(F)cccc4C(=O)O)CC3)CC2)ccc1Cl [Example 68, 2-(4-{[4-(4-chloro-3-methylphenoxy)piperidin-1-yl]methyl}piperidin-1-yl)-3-fluorobenzoic acid]
Ki: 15.8 nM

SMILES: N#Cc1ccc(OC2CCN(CC3CCN(c4cc(Cl)ccc4C(=O)O)CC3)CC2)cc1Cl [Example 36, 4-chloro-2-(4-{[4-(3-chloro-4-cyanophenoxy)piperidin-1-yl]methyl}piperidin-1-yl)benzoic acid]
Ki: 10 nM

SMILES: N#Cc1ccc(OC2CCN(CC3CCN(c4c(Cl)cccc4C(=O)O)CC3)CC2)cc1Cl [Example 48, 3-chloro-2-(4-{[4-(3-chloro-4-cyanophenoxy)piperidin-1-yl]methyl}piperidin-1-yl)benzoic acid]
Ki: 79.4 nM

SMILES: Cc1c(OC2CCN(CC3CCN(c4cccc(C(=O)O)c4)CC3)CC2)ccc(Cl)c1Cl [Example 96, 3-(4-{[4-(3,4-dichloro-2-methylphenoxy)piperidin-1-yl]methyl}piperidin-1-yl)benzoic acid]
Ki: 20 nM

SMILES: COc1cccc(C(=O)O)c1N1CCC(CN2CCC(Oc3ccc(C#N)c(Cl)c3)CC2)CC1 [Example 55, 2-(4-{[4-(3-chloro-4-cyanophenoxy)piperidin-1-yl]methyl}piperidin-1-yl)-3-methoxybenzoic acid]
Ki: 316 nM

SMILES: CCOC(=O)c1cccc(N2CCC(CN3CCC(Cc4ccc(Cl)c(Cl)c4)CC3)CC2)c1 [Example 32, Ethyl 3-(4-{[4-(3,4-dichlorobenzyl)piperidin-1-yl]methyl}piperidin-1-yl)benzoate]
Ki: 10 nM

Second part, the molecule after the results:

Ki: 50.1 nM
SMILES: O=C(O)c1ccccc1N1CCC(O)(CN2CCC(Oc3ccc(Cl)c(Cl)c3)CC2)CC1 [Example 63, 2-(4-{[4-(3,4-dichlorophenoxy)piperidin-1-yl]methyl}-4-hydroxypiperidin-1-yl)benzoic acid]

Ki: 2.51 nM
SMILES: COC(=O)c1ccccc1N1CCC(CN2CCC(Oc3ccc(Cl)c(Cl)c3)CC2)CC1 [Example 1, methyl 2-[4-[[4-(3,4-dichlorophenoxy)-1-piperidinyl]methyl]-1-piperidinyl)-benzoate]

Ki: 5.01 nM
SMILES: Cc1ccc(C(=O)O)c(N2CCC(CN3CCC(Oc4ccc(Cl)c(Cl)c4)CC3)CC2)n1 [Example 47, 2-(4-{[4-(3,4-dichlorophenoxy)piperidin-1-yl]methyl}piperidin-1-yl)-6-methylnicotinic acid]

Ki: 20 nM
SMILES: O=C(O)c1cccc(N2CCC(CN3CCC(Cc4ccc(Cl)c(Cl)c4)CC3)CC2)c1 [Example 106, 3-(4-{[4-(3,4-dichlorobenzyl)piperidin-1-yl]methyl}piperidin-1-yl)benzoic acid]

Ki: 1.58 nM
SMILES: Cc1cc(Cl)ccc1OC1CCN(CC2CCN(c3ccc([N+](=O)[O-])cc3C(=O)O)CC2)CC1 [Example 59, 2-(4-{[4-(4-chloro-2-methylphenoxy)piperidin-1-yl]methyl}piperidin-1-yl)-5-nitrobenzoic acid]

Ki: 50.1 nM
SMILES: Cc1cc(Cl)ccc1OC1CCN(CC2CCN(c3ccccc3C(=O)O)CC2)CC1 [Example 49, 2-(4-{[4-(4-chloro-2-methylphenoxy)piperidin-1-yl]methyl}piperidin-1-yl)benzoic acid]

Ki: 7.94 nM
SMILES: Cc1cc(C(=O)O)cc(N2CCC(CN3CCC(Oc4ccc(Cl)c(Cl)c4)CC3)CC2)c1 [Example 99, 3-(4-{[4-(3,4-dichlorophenoxy)piperidin-1-yl]methyl}piperidin-1-yl)-5-methylbenzoic acid]
